# From patent US20170275298A1, “INHIBITORS OF THE RENAL OUTER MEDULLARY POTASSIUM CHANNEL” (Merck Sharp & Dohme Corp., priority 2014, published 2017)
# Target: T1, hROMK (hKir1.1) (Homo sapiens, UniProt P48048)
# T1 construct: expressed in transfected cells
# T1 sequence (P48048 1-391): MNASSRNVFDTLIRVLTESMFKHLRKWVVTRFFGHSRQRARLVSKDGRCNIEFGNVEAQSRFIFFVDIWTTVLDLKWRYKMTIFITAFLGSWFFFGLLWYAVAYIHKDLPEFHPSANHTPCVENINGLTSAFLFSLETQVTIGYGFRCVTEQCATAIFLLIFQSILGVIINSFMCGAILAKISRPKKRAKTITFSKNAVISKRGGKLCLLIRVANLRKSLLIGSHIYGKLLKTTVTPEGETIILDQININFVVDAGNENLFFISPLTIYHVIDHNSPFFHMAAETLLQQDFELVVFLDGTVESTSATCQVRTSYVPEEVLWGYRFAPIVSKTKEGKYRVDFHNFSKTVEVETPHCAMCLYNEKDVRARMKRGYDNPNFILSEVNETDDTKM
# Experiment: Thallium Flux Assay (ROMK channel functional thallium flux assay)
# Format: cell-based
# Conditions: HEK293 cells stably expressing hROMK (hKir1.1); FluxOR thallium flux, FLIPR-Tetra, 30 min compound incubation; read-out: ROMK TI IC50
# Method: The following Thallium Flux Assay was performed on each of the final product compounds in the Examples.
# HEK293 cells stably expressing hROMK (hKir1.1) were grown at 37° C. in a 10% CO2 humidified incubator in complete growth media: Dulbecco's Modified Eagle Medium supplemented with non-essential amino acids, Penicillin/Streptomycin/Glutamine, G418 and FBS. At >80% confluency, the media was aspirated from the flask and rinsed with 10 mL calcium/magnesium-free PBS. […] To dislodge the cell, the side of the flask was gently banged with one's hand. The cells completely titrated and then the cells were transferred to 25 mL complete media, centrifuged at 1,500 rpm for 6 min followed by resuspension in complete growth media and determine cell concentration. […] Under ideal growth conditions and appropriate tissue culture practices, this cell line is stable for 40-45 passages.
# • FluxOR™ Reagent (Component A) • FluxOR™ Assay Buffer (Component B)—10× Concentrate • PowerLoad™ Concentrate (Component C)—100× Concentrate • Probenecid (Component D)—Lyophilized sample is kept at −20° C. Water soluble, 100× after solubilization in 1 mL water. […] Store at 4° C. • Thallium sulfate (Tl2SO4) Concentrate (Component G)—50 mM in water. Store at 4° C. • DMSO (dimethyl sulfoxide, Component H)—1 mL (100%)
# Can be stored at room temperature • Stimulant Buffer (prepared at 5× final concentration in 1×FluxOR™ Chloride-Free Buffer): 7.5 mM thallium sulfate and 0.75 mM potassium sulfate (to give a final assay concentration of 3 mM Thallium/0.3 mM potassium). Store at 4° C. when not in use. If kept sterile, this solution is good for months.
# The ROMK channel functional thallium flux assay was performed in 384 wells, using the FLIPR-Tetra instrument. HEK-hKir1.1 cells were seeded in Poly-D-Lysine microplates and kept in a 37° C.-10% CO2 incubator overnight. On the day of the experiment, the growth media was replaced with the FluxOR™ reagent loading buffer and incubated, protected from light, at ambient temperature (23-25° C.) for 90 min. The loading buffer was replaced with assay buffer±test compound followed by 30 min incubation at ambient temperature, where the thallium/potassium stimulant was added to the microplate.
# 1. Seed HEK-hKir1.1 cells (50 μl at 20,000 cells/well) in 384-well PDL coated Microplates 2. Allow cells to adhere overnight in humidified 37° C./10% CO2 incubator 3. Completely remove cell growth media from microplate and replace with 25 μl loading buffer 4. Incubate Microplate at room temperature, protected form light, for 90 min 5. Remove loading buffer and replace with 25 μl 1× Assay Buffer±test compound. 6. Incubate microplate at room temperature, protected from light, for 30 min 7. […] Excitation=400 nm, Emission=460 & 580 nm. Collect data for ˜10 min.
# The fluorescence intensity of wells containing 3 μM of a standard control ROMK inhibitor of the present invention was used to define the ROMK-sensitive component of thallium flux. Fluorescence in the presence of test compounds was normalized to control values to provide % fluorescence change.
row,Compound,IC50 [µM]
1,"Cc1c([C@H](O)CN2CCC3(CC2)CCN(c2ccc(=O)n(C)n2)C3=O)ccc2c1COC2=O (single isomer, unassigned) [Example 57]",0.252
2,"[2H]C([2H])(N1CCC2(CCN(c3ccc(=O)n(C)n3)C2=O)CC1)[C@@]([2H])(O)c1ccc2c(c1C)COC2=O (single isomer, unassigned) [Example 59]",0.462
3,"Cc1c([C@@H](O)CN2CCC3(CC2)CCN(c2nc(Cl)cs2)C3)ccc2c1COC2=O [Example 2, 5-{(1R)-2-[2-(4-chloro-1,3-thiazol-2-yl)-2,8-diazaspiro[4.5]dec-8-yl]-1-hydroxyethyl}-4-methyl-2-benzofuran-1(3H)-one]",0.935
4,"COc1ccc(N2CCC3(CCN(C[C@H](O)c4cc(OC)c(C#N)cn4)CC3)C2)nn1 [Example 6, (S)-6-(1-hydroxy-2-(2-(6-methoxypyridazin-3-yl)-2,8-diazaspiro[4.5]decan-8-yl)ethyl)-4-methoxynicotinonitrile]",0.476
5,"Cc1c([C@@H](O)CN2CCC3(CC2)CCN(c2ncns2)C3)ccc2c1COC2=O [Example 8, (R)-5-(2-(2-(1,2,4-thiadiazol-5-yl)-2,8-diazaspiro[4.5]decan-8-yl)-1-hydroxyethyl)-4-methylisobenzofuran-1(3H)-one]",0.526
6,"COc1cc(N2CCC3(CCN(C[C@H](O)c4ccc5c(c4C)COC5=O)CC3)C2)nc(OC)n1 [Example 10, (R)-5-(2-(2-(2,6-dimethoxypyrimidin-4-yl)-2,8-diazaspiro[4.5]decan-8-yl)-1-hydroxyethyl)-4-methylisobenzofuran-1(3H)-one]",0.725
7,"COc1cc(N2CCC3(CCN(C[C@H](O)c4ccc5c(c4C)COC5=O)CC3)C2)ccn1 [Example 12, (R)-5-(1-hydroxy-2-(2-(2-methoxypyridin-4-yl)-2,8-diazaspiro[4.5]decan-8-yl)ethyl)-4-methylisobenzofuran-1(3H)-one]",0.962
8,"COc1nsc(N2CCC3(CCN(C[C@H](O)c4ccc5c(c4C)COC5=O)CC3)C2)n1 [Example 13, (R)-5-(1-hydroxy-2-(2-(3-methoxy-1,2,4-thiadiazol-5-yl)-2,8-diazaspiro[4.5]decan-8-yl)ethyl)-4-methylisobenzofuran-1(3H)-one]",0.336
9,"COc1nccc(N2CCC3(CCN(C[C@H](O)c4ccc5c(c4C)COC5=O)CC3)C2)n1 [Example 14, (R)-5-(1-hydroxy-2-(2-(2-methoxypyrimidin-4-yl)-2,8-diazaspiro[4.5]decan-8-yl)ethyl)-4-methylisobenzofuran-1(3H)-one]",0.42
10,"COc1ncc(N2CCC3(CCN(C[C@H](O)c4ccc5c(c4C)COC5=O)CC3)C2)cn1 [Example 15, (R)-5-(1-hydroxy-2-(2-(2-methoxypyrimidin-5-yl)-2,8-diazaspiro[4.5]decan-8-yl)ethyl)-4-methylisobenzofuran-1(3H)-one]",0.284
11,Cc1c([C@@H](O)CN2CCC3(CC2)CN(c2ccns2)C3)ccc2c1COC2=O [Example 16],0.417
12,"Cc1nc(-n2cnnn2)ccc1[C@@H](O)CN1CCC2(CC1)CN(c1ccc(=O)n(C)n1)CCO2 [Example 18, (R)-6-(9-(2-hydroxy-2-(2-methyl-6-(1H-tetrazol-1-yl)pyridin-3-yl)ethyl)-1-oxa-4,9-diazaspiro[5.5]undecan-4-yl)-2-methylpyridazin-3(2H)-one]",0.376
13,"Cc1cc(-n2cnnn2)ccc1[C@@H](O)CN1CCC2(CC1)CN(c1ccc(=O)n(C)n1)CCO2 [Example 19, (R)-6-(9-(2-hydroxy-2-(2-methyl-4-(1H-tetrazol-1-yl)phenyl)ethyl)-1-oxa-4,9-diazaspiro[5.5]undecan-4-yl)-2-methylpyridazin-3(2H)-one]",0.54
14,"Cn1nc(N2CCC3(CCN(CCc4ccc(-n5cnnn5)nn4)CC3)C2=O)ccc1=O [Example 21, 8-(2-(6-(1H-tetrazol-1-yl)pyridazin-3-yl)ethyl)-2-(1-methyl-6-oxo-1,6-dihydropyridazin-3-yl)-2,8-diazaspiro[4.5]decan-1-one]",0.568
15,"Cn1nc(N2CCC3(CCN(CCc4ccc(-n5cnnn5)nc4)CC3)C2=O)ccc1=O [Example 22, 8-(2-(6-(1H-tetrazol-1-yl)pyridin-3-yl)ethyl)-2-(1-methyl-6-oxo-1,6-dihydropyridazin-3-yl)-2,8-diazaspiro[4.5]decan-1-one]",0.42

# Other lines, results leading:
row,IC50 [µM],Compound
1,0.036,"[2H]C([2H])(N1CCC2(CCN(c3ccc(=O)n(C)n3)C2=O)CC1)[C@]([2H])(O)c1ccc2c(c1C)COC2=O (single isomer, unassigned) [Example 58]"
2,0.251,"Cc1nsc(N2CCC3(CCN(C[C@H](O)c4ccc5c(c4C)COC5=O)CC3)C2)n1 [Example 1, 5-{(1R)-1-hydroxy-2-[2-(3-methyl-1,2,4-thiadiazol-5-yl)-2,8-diazaspiro[4.5]dec-8-yl]ethyl}-4-methyl-2-benzofuran-1(3H)-one]"
3,0.1,"CC(=O)OCc1nsc(N2CCC3(CCN(C[C@H](O)c4ccc5c(c4C)COC5=O)CC3)C2)n1 [Example 3, (5-{8-[(2R)-2-hydroxy-2-(4-methyl-1-oxo-1,3-dihydro-2-benzofuran-5-yl)ethyl]-2,8-diazaspiro[4.5]dec-2-yl}-1,2,4-thiadiazol-3-yl)methyl acetate]"
4,0.0451,"Cc1c([C@@H](O)CN2CCC3(CC2)CCN(c2nsc(Cl)n2)C3)ccc2c1COC2=O [Example 4, (R)-5-(2-(2-(5-chloro-1,2,4-thiadiazol-3-yl)-2,8-diazaspiro[4.5]decan-8-yl)-1-hydroxyethyl)-4-methylisobenzofuran-1(3H)-one]"
5,0.0648,"Cc1c([C@@H](O)CN2CCC3(CC2)CCN(c2nc(Cl)ns2)C3)ccc2c1COC2=O [Example 5, (R)-5-(2-(2-(3-chloro-1,2,4-thiadiazol-5-yl)-2,8-diazaspiro[4.5]decan-8-yl)-1-hydroxyethyl)-4-methylisobenzofuran-1(3H)-one]"
6,0.149,"Cc1c([C@@H](O)CN2CCC3(CC2)CCN(c2ccns2)C3)ccc2c1COC2=O [Example 7, (R)-5-(1-hydroxy-2-(2-(isothiazol-5-yl)-2,8-diazaspiro[4.5]decan-8-yl)ethyl)-4-methylisobenzofuran-1(3H)-one]"
7,0.173,"Cc1c([C@@H](O)CN2CCC3(CC2)CCN(c2cc(C(F)(F)F)ncn2)C3)ccc2c1COC2=O [Example 9, (R)-5-(1-hydroxy-2-(2-(6-(trifluoromethyl)pyrimidin-4-yl)-2,8-diazaspiro[4.5]decan-8-yl)ethyl)-4-methylisobenzofuran-1(3H)-one]"
8,0.0676,"Cc1c([C@@H](O)CN2CCC3(CC2)CCN(c2ccc(=O)n(C)n2)C3)ccc2c1COC2=O [Example 11, (R)-6-(8-(2-hydroxy-2-(4-methyl-1-oxo-1,3-dihydroisobenzofuran-5-yl)ethyl)-2,8-diazaspiro[4.5]decan-2-yl)-2-methylpyridazin-3(2H)-one]"
9,0.0883,"Cc1c([C@@H](O)CN2CCC3(CC2)CN(c2ccc(=O)n(C)n2)CCO3)ccc2c1COC2=O [Example 17, (R)-6-(9-(2-hydroxy-2-(4-methyl-1-oxo-1,3-dihydroisobenzofuran-5-yl)ethyl)-1-oxa-4,9-diazaspiro[5.5]undecan-4-yl)-2-methylpyridazin-3(2H)-one]"
10,0.0512,"Cc1c(CCN2CCC3(CC2)CCN(c2ccc(=O)n(C)n2)C3=O)ccc2c1COC2=O [Example 20, 8-(2-(4-methyl-1-oxo-1,3-dihydroisobenzofuran-5-yl)ethyl)-2-(1-methyl-6-oxo-1,6-dihydropyridazin-3-yl)-2,8-diazaspiro[4.5]decan-1-one]"
